pIC50: −log10 of the molar value. Entries after “also recorded” stand apart in the source; their conditions may differ.
Key:
[1] = test system: H838 NRF2-ARE-Fluc stable cell line; assay: H838 Nrf2 assay: NRF2-ARE firefly luciferase reporter gene assay; format: cell-based; conditions: Homo sapiens, NCI-H838, read-out: Potency of inhibition, H838
Source text: H838 is a NSCLC cell line with LOF Keap1 activity and constitutive translocation of NRF2 into the nucleus. A firefly luciferase reporter construct driven by a minimal promoter of NRF2-specific ARE is stably expressed in the H838 cells. This cell line was used as a confirmation assay to make sure hits identified from primary screening and that passed counterscreen assays worked in different cell types with a constitutively active NRF2 pathway (deficiency in Keap1).
This assay was very similar to the primary assay except that the cell line was changed. […] The final concentration of DMSO was maintained at 0.46%. Control compounds Budesonide and Staurosporine were both added at a concentration of 2 mM and Budesonide was also added as a 1:10 titration, starting at 200 μM, to achieve dose-response. After an 18-24 hour incubation at 37° C., 95% humidity, and 5% CO2, 1 μL of 5× CellTiter-Fluor non-lytic cell viability assay reagent (Promega, Madison Wis.) was added into the each well of the plates. The plates were then incubated for 30 minutes at room temperature before they were read on a ViewLux plate imager (Perkin Elmer, Waltham Mass.) using an excitation wavelength of 405 nm and an emission wavelength of 525 nm.
Representative compounds were assayed to assess the potency of inhibition in an A549 NRF2-ARE-Fluc stable cell line (A549 Nrf2 assay), in an H838 NRF2-ARE-Fluc stable cell line (H838 Nrf2 assay), and in an H1437 NRF2-ARE-Fluc stable cell line (H1437 Nrf2 assay) (see Table 3).

[2] = test system: mRNA expression of Nrf2 and its downstream target genes, GCLm and NQO1, A549 cells; assay: Real time RT-PCR of Nrf2 and downstream target genes in A549 cells; format: cell-based; conditions: for NRF2 signaling, fold change in mRNA by real time RT-PCR / Nrf2 (and GCLm, NQO1) expression, real time PCR based validation: A549 cells; for NRF2 signaling, fold change in mRNA by real time RT-PCR: 48 h (compounds 1, 3), 72 h (compound 4)
Protocol: […] The mRNA expression of Nrf2 and its downstream target genes, GCLm and NQO1 was measured by RT-PCR. (NC means no significant change in gene expression in comparison with vehicle group; M represents the concentration of drug used in the gene expression studies and it is twice the IC50 values generated from primary screening with A549-ARE reporter cell lines).

[3] = test system: osteosarcoma cells; assay: Clonogenic assay in osteosarcoma cells; format: cell-based; conditions: for Growth of osteosarcoma cells, single agent: single agents
Protocol: (§1) For the clonogenic assays, 1,000 cells/well were plated in a 6-well plate. The next day, the cells were treated with vehicle (DMSO), Nrf2 inhibitor, a chemotherapeutic drug, or a combination of Nrf2 and chemotherapeutic drugs for 48 hrs. The drug containing media was then replaced with regular growth media and the cells were incubated for an additional 10 days. At the end of incubation period, the colonies were stained with Crystal Violet and imaged.

[4] = test system: mRNA expression of Nrf2 and its downstream target genes, GCLm and NQO1, H1437 cells; assay: Real time RT-PCR of Nrf2 and downstream target genes in H1437 cells; format: cell-based
Protocol: For the real time reverse transcription polymerase chain reaction (RT-PCR) assay, cells were treated with Nrf2 inhibitors for 36-48 hrs, followed by total RNA isolation. The mRNA expression of Nrf2 and its downstream target genes, GCLm and NQO1 was measured by RT-PCR. (NC means no significant change in gene expression in comparison with vehicle group; M represents the concentration of drug used in the gene expression studies and it is twice the IC50 values generated from primary screening with A549-ARE reporter cell lines).

[5] = test system: H460 lung cancer cells; assay: Clonogenic assay in H460 lung cancer cells; format: cell-based; conditions: for Cytotoxicity of chemotherapeutic drugs in combination with the compound, clonogenic assay: H460 cells, combination with chemotherapeutic drug
Protocol: (§2) (A) H460, a NSCLC with a point mutation in KEAP1, is more sensitive to compound 4 than H460-KEAP1 Knock-in H460 cells expressing WT KEAP1. The cells were incubated with the inhibitor for 48 h. Colonies were stained with crystal violet staining and manually counted. (B-C) A549 and H460 cells were treated with different concentrations of paclitaxel, doxorubicin and carboplatin singly or in combination with compound 4 for 72 h. At the end of treatment, regular growth media was added and cells were further incubated for 8-10 days and stained with crystal violet. […] Cells treated with Chemo drug alone or a combination of compound 4 and chemo drug were incubated with luminogenic caspase substrate and change in luminescence was measured. Caspase activity was normalized to the number of viable cells using CellTiter-Blue assay.
as §1

[6] = test system: orthotopic lung tumor model; assay: Orthotopic lung tumor model, NSCLC xenograft; format: in vivo, Mice; conditions: three weeks post-treatment; single agent and combination with carboplatin
Protocol: A549 cells were injected in the flanks of athymic nude mice and once tumor volume reached 50-100 mm^3, treatment was initiated. Vehicle, carboplatin (5 mg/kg daily Monday to Friday), compound 4 (30 mg/kg daily Monday to Friday) or a combination of compound 4 and carboplatin was administered for three weeks. Values represent tumor volume ±s.e.m. for all groups (A). […] Tumors were excised and weight at the end of treatment period. […] For each group, pretreatment available lung volume was defined as 100% and compared with post-treatment lung volumes. Mice in the vehicle treated group died at 3 weeks;

[7] = test system: orthotopic lung tumor model (large cell model); assay: Orthotopic lung tumor model (large cell model); format: in vivo, Mice; conditions: two weeks post-treatment; single agent and combination with carboplatin
Source text: For each group, pretreatment available lung volume was defined as 100% and compared with post-treatment lung volumes.

[8] = test system: Caspase 3/7 activity, H460 cells; assay: Caspase 3/7 activity in H460 cells; format: cell-based; conditions: combination of compound and chemo drug
Protocol: as §2

[9] = test system: Ewing sarcoma cells (A4573); assay: Soft agar colony assay in Ewing sarcoma cells; format: cell-based; conditions: 72 h
Protocol: (A) Ewing sarcoma cells (A4573) cells were on soft agar and treated with doxorubicin (2 nM) singly or in combination with compound 4 (10 μM) for 72 h. At the end of treatment, regular growth media was added and cells were further incubated for 8-10 days and colonies were stained with crystal violet and counted. (B) Rhabdomyosarcoma cells (Rh30) cells were on soft agar and treated with doxorubicin (2 nM) and etoposide (5-nM) singly or in combination with compound 4 (10 μM) for 72 h. At the end of treatment, regular growth media was added and cells were further incubated for 8-10 days and colonies were stained with crystal violet and counted;

pIC50 [1] | Compound | NRF2 signaling, fold change in mRNA by real time RT-PCR [2] | Nrf2, GCLm, and NQO1 gene expression, real time PCR based validation assay ([2]; cell line not given) | Growth of osteosarcoma cells, combination with doxorubicin [3] | Growth of osteosarcoma cells, single agent [3] | NQO1 and GCLm expression, real time PCR ([2]; A549 and H1437 cells) | Nrf2 (and GCLm, NQO1) expression, real time PCR based validation [2] | Nrf2 (and GCLm, NQO1) expression, real time PCR based validation [4] | Cytotoxicity of chemotherapeutic drugs in combination with the compound, clonogenic assay [5] | NRF2 and its target genes, time course ([2]; 5 μM) | Selective toxicity: H460 (KEAP1 point mutation) versus H460-KEAP1 Knock-in cells expressing WT KEAP1 ([5]; 48 h, colonies counted) | Tumor free lung volume, orthotopic lung tumor model [6] | Tumor free lung volume, orthotopic lung tumor model [7] | Caspase 3/7 activity [8] | Colony growth of A4573 cells on soft agar, combination ([9]; 10 μM with doxorubicin (2 nM)) | Colony growth of A4573 cells on soft agar, single agent ([9]; 10 μM)
> 5.30 | O=C(Nc1ncc(Cc2ccc(C(F)(F)F)cc2)s1)c1ccc(-c2cccc([N+](=O)[O-])c2)o1 [Compound 1] | inhibit NRF2 signaling | decrease in Nrf2, GCLm, and NQO1 gene expression | suppressed the growth of osteosarcoma cells | suppressed the growth of osteosarcoma cells | – | – | – | – | – | – | – | – | – | – | –
> 5.30 | CC1(C)CC2CC(C)(CN2S(=O)(=O)c2ccc(C(=O)Nc3ccc(Cl)c(S(=O)(=O)N4CCOCC4)c3)cc2)C1 (stereo not drawn) [compound 3] | inhibit NRF2 signaling | – | suppressed the growth of osteosarcoma cells | suppressed the growth of osteosarcoma cells | Inhibition of NQO1 expression as well as some inhibition of GCLm expression | inhibit Nrf2 expression | inhibit Nrf2 expression | enhance the cytotoxicity of standard care chemotherapeutic drugs | – | – | – | – | – | – | –
4.60 to 5.30 | Cc1ccccc1C(=O)N1CCc2cc(-c3nc(NC(=O)Cc4ccc5c(c4)OCO5)sc3C)ccc21 [compound 4] | inhibits NRF2 signaling | – | suppressed the growth of osteosarcoma cells | suppressed the growth of osteosarcoma cells | – | significant reduction in Nrf2, GCLm, and NQO1 expression | significant reduction in Nrf2, GCLm, and NQO1 expression | enhance the cytotoxicity of the chemotherapeutic drug paclitaxel; also recorded: potentiates the toxicity of standard care chemotherapy drugs | Time dependent reduction in NRF2 and its target genes | selectively toxic to cells with KEAP1 mutations | shows anti-tumor efficacy as a single agent and in combination with carboplatin | shows anti-tumor efficacy as a single agent and in combination with carboplatin | increased Caspase 3/7 activity | potentiates the cytotoxicity of standard care chemotherapy drugs | significant growth inhibitory activity as single agent

Source: patent US20160046616A1, “NRF2 SMALL MOLECULE INHIBITORS FOR CANCER THERAPY” (THE JOHNS HOPKINS UNIVERSITY, priority 2013, published 2016)
